Consider one compound from the NIST ThermoML archive (doi:10.1016/j.jct.2016.10.022).

The conditions of series [1]: Crystal; DTA.
A short description of series [2]: Molar enthalpy of transition or fusion. The note with it: Crystal; DSC.

± gives the expanded uncertainty stated by the source.

In the case of `CC[C@H](C)[C@H]1O[C@]2(C=C[C@@H]1C)C[C@@H]1C[C@@H](C/C=C(\C)[C@@H](O[C@H]3C[C@H](OC)[C@@H](O[C@H]4C[C@H](OC)[C@@H](O)[C@H](C)O4)[C@H](C)O3)[C@@H](C)/C=C/C=C3\CO[C@@H]4[C@H](O)C(C)=C[C@@H](C(=O)O1)[C@]34O)O2` [Avermectin B1a], the Normal melting temperature in series [1] is 163.29 ± 0.61 °C. Further, the “Molar enthalpy of transition or fusion” value in series [2] worked out at 6.91 ± 0.153 kcal/mol.
